The values below come from US5846986A, “Therapeutic phenoxyalkylazoles and phenoxyalkylazines” (Sanofi, priority 1997, dated 1998).

In this experiment the test system is panel of 10 human rhinopicornavirus serotypes HRV-3, -4, -5, -9, -16, -18, -38, -66, -75 and -67 (panel B). Kind of experiment: automated TCID-50 assay, HeLa cells, panel B of 10 human rhinopicornavirus serotypes. In kind it is cell-based. The settings on record: minimum concentration required to inhibit 50% of the tested serotypes, number of serotypes tested in column N, 3 days, 33° C. As to the method: The MIC values were determined by an automated tissue culture infectious dose 50% (TCID-50) assay. HeLa cells in monoloyers in 96-well cluster plates were infected with a dilution of picornavirus which had been shown empirically to produce 80% to 100% cytopathic effect (CPE) in 3 days in the absence of drug. The compound to be tested was serially diluted through 10, 2-fold cycles and added to the infected cells. After a 3 day incubation at 33° C. and 2.5% carbon dioxide, the cells were fixed with a 5% solution of glutaraldehyde followed by staining with a 0.25% solution of crystal violet in water. […]
In the above test procedures, representative compounds of formula I were tested against some the serotypes from either a panel of fifteen human rhinopicornavirus (HRV) serotypes, (noted in the table as panel T) namely, HRV-2, -14, -1A, -1B, -6, -21, -22, -15, -25, -30, -50, -67, -89, -86 and -41 or against some of the serotypes from a panel of 10 human rhinopicornavirus serotypes namely HRV-3, -4, -5, -9, -16, -18, -38, -66, -75 and -67, (noted in the table as panel B) and the MIC value, expressed in micrograms per milliliter […], for each rhinopicornavirus serotype was determined for each picornavirus, example le is given as an example of the data. […]

For the substance “3-Methyl-5-[3-[4-(2-methyl-tetrazol-5-yl)-2,6-dimethylphenoxy]-propyl]-thiazole [Example 11]”, the Mic50 was found to be 0.148 µg/mL.
